{
  "source": "paper PMC8134483",
  "about": "(Scientific Reports, 2021)",
  "key": {"hCB1R [1]": {"molecular_target": "T1, hCB1R (Homo sapiens, UniProt P21554)", "T1 construct": "expressed in transfected cells; host or cells: CHO-K1", "T1 sequence (P21554 whole entry)": "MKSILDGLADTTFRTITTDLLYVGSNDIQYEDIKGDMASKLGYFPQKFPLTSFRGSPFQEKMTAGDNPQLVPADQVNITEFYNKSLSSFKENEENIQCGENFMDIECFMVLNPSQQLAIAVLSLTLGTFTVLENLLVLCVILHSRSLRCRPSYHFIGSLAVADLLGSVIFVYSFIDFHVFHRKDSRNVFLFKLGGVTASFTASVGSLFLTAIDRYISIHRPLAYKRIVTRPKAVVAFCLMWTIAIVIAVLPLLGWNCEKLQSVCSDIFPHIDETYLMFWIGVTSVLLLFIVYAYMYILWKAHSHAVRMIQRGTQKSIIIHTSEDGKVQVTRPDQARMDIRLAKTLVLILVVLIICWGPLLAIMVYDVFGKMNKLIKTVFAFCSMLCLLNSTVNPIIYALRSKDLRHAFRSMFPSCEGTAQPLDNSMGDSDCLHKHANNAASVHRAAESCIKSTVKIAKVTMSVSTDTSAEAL", "assay": "biochemical", "assay_type": "binding"}, "hCB1R [2]": {"molecular_target": "T1, hCB1R", "assay": "cell-based", "assay_type": "cell-based"}, "hCB1R [3]": {"molecular_target": "T1, hCB1R", "assay": "cell-based", "assay_type": "cell-based", "remark": "listed apart in the source"}, "hCB2R [4]": {"molecular_target": "T2, hCB2R (Homo sapiens, UniProt P34972)", "T2 construct": "host or cells: CHO-K1 (PathHunter)", "T2 sequence (P34972 whole entry)": "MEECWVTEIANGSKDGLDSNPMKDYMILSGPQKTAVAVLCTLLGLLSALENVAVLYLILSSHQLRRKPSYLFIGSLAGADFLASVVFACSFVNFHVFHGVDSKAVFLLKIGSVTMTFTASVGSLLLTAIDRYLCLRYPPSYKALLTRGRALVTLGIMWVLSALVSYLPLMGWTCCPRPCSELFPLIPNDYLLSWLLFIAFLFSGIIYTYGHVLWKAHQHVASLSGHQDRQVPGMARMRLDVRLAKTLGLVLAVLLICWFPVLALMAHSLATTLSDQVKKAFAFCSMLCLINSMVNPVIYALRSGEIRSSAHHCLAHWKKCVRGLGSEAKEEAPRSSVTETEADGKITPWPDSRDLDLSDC", "assay": "[^3H]CP55,940 competition (radioligand displacement) binding to CB2R"}, "hCB2R [5]": {"molecular_target": "T2, hCB2R", "assay": "HitHunter inhibition of FSK-stimulated cAMP, CB2R", "assay_type": "cell-based"}, "hCB2R [6]": {"molecular_target": "T2, hCB2R", "assay": "PathHunter βarrestin2 recruitment, CB2R", "assay_type": "cell-based", "details": "for βarrestin2 recruitment to CB2R, activity in words: relative to CP55,940"}, "hCB1R [7]": {"molecular_target": "T1, hCB1R", "assay": "CB1R bias analysis (operational model, cAMP inhibition vs βarrestin2)", "assay_type": "cell-based", "details": "cAMP inhibition vs βarrestin2", "experimental": "(§1) Estimates of Ki, EC50, Emin, and Emax were determined using non-linear regression with variable slope (four parameters) (GraphPad, Prism, v. 8.0). […] One-way analysis of variance (ANOVA), followed by Tukey’s post-hoc test, was used for statistical analyses (p < 0.05 determined to be significant); and Bartlett’s test was used to confirm homogeneity of variance (GraphPad)."}, "hCB2R [8]": {"molecular_target": "T2, hCB2R", "assay": "CB2R bias analysis (operational model, cAMP inhibition vs βarrestin2)", "assay_type": "cell-based", "details": "CP55,940 as reference agonist; >0 cAMP bias, <0 βarrestin2 bias", "experimental": "as §1"}, "male C57Bl/6 mice [9]": {"test_system": "male C57Bl/6 mice", "assay": "Catalepsy, ring holding assay", "assay_type": "in vivo", "details": "0.1–10 mg/kg i.p.; 5 min; % MPE 60 s", "experimental": "(§2) Adult male C57BL/6 mice aged 6–10 weeks (mean weight 24 ± 0.5 g) were purchased from Charles River Labs (Senneville, QC). Animals were group housed (three per cage) with ad libitum access to food, water, and environmental enrichment and maintained on a 12 h light/dark cycle. Mice were randomly assigned to receive i.p. injections of vehicle (1:1:18 ethanol:emulphor:saline) or 0.1–10 mg/kg SCRA (n ≥ 4 per group). All protocols have been described previously and were in accordance with the guidelines detailed by the Canadian Council on Animal Care and approved by the Animal Research Ethics Board and the Scientific Merit Review Committee for Animal Behaviour at the University of Saskatchewan. […]\n(§3) Modified tetrad testing (catalepsy, body temperature, tail flick assay) was conducted according to previously described methods, which are summarized briefly here. […] Catalepsy was assessed in the ring holding assay 5 min following injection with mouse forepaws clasped to a 5 mm ring positioned 5 cm above the surface of the testing space. The length of time the ring was held was recorded (s) to a maximum time of 60 s (i.e. MPE = 60 s). Internal body temperature was measured 15 min after injection. Anti-nociception was determined by assessing tail flick latency 20 min after injection. […]"}, "male C57Bl/6 mice [10]": {"test_system": "male C57Bl/6 mice", "assay": "Internal body temperature", "assay_type": "in vivo", "details": "0.1–10 mg/kg i.p.; 15 min", "experimental": "as §2, §3"}, "male C57Bl/6 mice [11]": {"test_system": "male C57Bl/6 mice", "assay": "Anti-nociception, tail flick assay", "assay_type": "in vivo", "details": "0.1–10 mg/kg i.p.; 20 min; 52 °C; % MPE 20 s", "experimental": "as §2, §3"}, "male C57Bl/6 mice [12]": {"test_system": "male C57Bl/6 mice", "assay": "Elevated plus maze (EPM)", "assay_type": "in vivo", "details": "1.0 mg/kg i.p., 30 min after treatment, 5 min trial", "experimental": "Adult male C57BL/6 mice aged 6–10 weeks (mean weight 24 ± 0.5 g) were purchased from Charles River Labs (Senneville, QC). Animals were group housed (three per cage) with ad libitum access to food, water, and environmental enrichment and maintained on a 12 h light/dark cycle. Mice were randomly assigned to receive i.p. injections of vehicle (1:1:18 ethanol:emulphor:saline) or 0.1–10 mg/kg SCRA (n ≥ 4 per group). All protocols have been described previously and were in accordance with the guidelines detailed by the Canadian Council on Animal Care and approved by the Animal Research Ethics Board and the Scientific Merit Review Committee for Animal Behaviour at the University of Saskatchewan. The following steps were taken to ensure our study was in keeping with the ARRIVE guidelines: (1) power analyses were conducted to determine the minimum number of animals required for the study; (2) animals were purchased—rather than bred—to limit animal waste; and (3) all assessments of animal behaviour were made by individuals blinded to the treatment group,[57].\nEPM was conducted according to methods adapted from Marks et al.. The EPM was built from a plywood base painted blue with blue corrugated plastic floor and walls. The floor of the maze was composed of perpendicular interlocking arms (110 cm long × 10 cm wide) with two arms having 45 cm walls (closed arms) and two arms having no walls and a 0.5 cm edge (open arms), all elevated 45 cm from the ground. Trials began with the mouse in the central zone facing an open arm. Trials lasted 5 min and began 30 min after SCRA treatment. An arm entry was considered to be all four limbs leaving the central zone. Arm entries and the percent time spent in open versus closed arms were recorded by an observer blinded to the treatment group. Less time in the open arms and more time in the closed arms was used as a model of anxiogenic behaviour."}, "[13]": {"details": "bottom of the concentration–response curve, mean ± SEM"}},
  "note": "Read-outs that look alike come from different tables or passages of the source.",
  "data": [
    {"smiles": "CC(C)CCn1cc(C(=O)c2ccc3ccccc3c2)c2ccccc21", "note": "[JWH 018 2'-naphthyl-N-(3-methylbutyl) isomer]", "values": [
      {"measurement": "Ki", "setting": "hCB1R [1]", "value": 0.93, "unit": "nM"},
      {"measurement": "CB1R versus CB2R selectivity, receptor affinity", "setting": "hCB1R [1]; CB1R vs CB2R [^3H]CP55,940 binding", "value": "greater affinity at CB1R relative to CB2R"},
      {"measurement": "CB1R [^3H]CP55,940 Emin", "setting": "hCB1R [1]; [13]", "value": "9.6 ± 2.7", "unit": "%"},
      {"measurement": "CB1R versus CB2R selectivity, cAMP inhibition potency", "setting": "hCB1R [2]; CB1R vs CB2R", "value": "more potent at CB2R relative to CB1R"},
      {"measurement": "EC50", "setting": "hCB1R [2]; CHO hCB1R, 10 µM FSK, 90 min, value with 95% CI, read-out: CB1R cAMP Inhibition EC50", "value": 98, "unit": "nM"},
      {"measurement": "Emax", "setting": "hCB1R [2]; read-out: CB1R cAMP Inhibition Emax", "value": "80 ± 9.1", "unit": "%"},
      {"measurement": "EC50", "setting": "hCB1R [3]; CHO hCB1R, 90 min, value with 95% CI, read-out: CB1R βarrestin2 recruitment EC50", "value": "> 10000", "unit": "nM"},
      {"measurement": "Emax", "setting": "hCB1R [3]; read-out: CB1R βarrestin2 recruitment Emax", "value": "4.9 ± 0.51", "unit": "%"},
      {"measurement": "βarrestin2 recruitment to CB1R, activity in words", "setting": "hCB1R [3]; relative to CP55940", "value": "Inactive at βarrestin2"},
      {"measurement": "Ki", "setting": "hCB2R [4]", "value": 7.5, "unit": "nM"},
      {"measurement": "CB2R [^3H]CP55,940 Emin", "setting": "hCB2R [4]; [13]", "value": "54 ± 3.5", "unit": "%"},
      {"measurement": "EC50", "setting": "hCB2R [5]", "value": 0.52, "unit": "nM"},
      {"measurement": "Emax", "setting": "hCB2R [5]", "value": "110 ± 9.2", "unit": "%"},
      {"measurement": "EC50", "setting": "hCB2R [6]", "value": "> 10000", "unit": "nM"},
      {"measurement": "Emax", "setting": "hCB2R [6]", "value": "6.1 ± 1.3", "unit": "%"},
      {"measurement": "βarrestin2 recruitment to CB2R, activity in words", "setting": "hCB2R [6]", "value": "Inactive at βarrestin2"},
      {"measurement": "βarrestin2 recruitment to CB2R, activity in words", "setting": "hCB2R [6]; listed as JWH 018 2′-napthyl-N-(3-methylbutyl) isomer", "value": "inactive in βarrestin2"},
      {"measurement": "Observed CB1R bias in cell culture", "setting": "hCB1R [7]", "value": "G protein"},
      {"measurement": "CB2R bias between cAMP inhibition and βarrestin2 recruitment, ∆∆LogR (cAMP—βarr2), in words", "setting": "hCB2R [8]", "value": "obligate cAMP-biased ligands"},
      {"measurement": "Catalepsy response", "setting": "male C57Bl/6 mice [9]", "value": "partial agonist"},
      {"measurement": "Body temperature (hypothermia) response", "setting": "male C57Bl/6 mice [10]", "value": "did not change body temperature"},
      {"measurement": "Anti-nociceptive response, tail flick", "setting": "male C57Bl/6 mice [11]", "value": "full agonist"},
      {"measurement": "EPM open arm entries", "setting": "male C57Bl/6 mice [12]", "value": "increased open arm entry"},
      {"measurement": "EPM time in the open arms", "setting": "male C57Bl/6 mice [12]", "value": "greater amount of time spent in the open arms"},
      {"measurement": "EPM total arm entries", "setting": "male C57Bl/6 mice [12]; vs vehicle", "value": "did not change total arm entries"}
    ]}
  ]
}
